pIC50: −log10 of the molar value. The source made the active and inactive calls. No cut-off for these calls is given here.
What was measured:
[1] = system: CNE-2; assay: Anticancer activity against human CNE-2 cells assessed as inhibition of cell growth; assay type: functional, cell-based
[2] = system: CAL-27; assay: Anticancer activity against human CAL-27 cells assessed as inhibition of cell growth; assay type: functional, cell-based
[3] = system: KB; assay: Anticancer activity against human KB cells assessed as inhibition of cell growth; assay type: functional, cell-based
[4] = target: Telomerase reverse transcriptase (Homo sapiens, UniProt O14746); assay: Inhibition of telomerase activity in human CNE-2 cells; assay type: cell-based
[5] = system: CNE-2; assay: Anticancer activity against human CNE-2 cells assessed as induction of senescence by measuring shortening of telomer length at 0.5 to 1 uM incubated for 8 days by TRF analysis; assay type: functional, cell-based; conditions: dose 0.5-1 µM, time 8.0 day
[6] = system: CNE-2; assay: Induction of apoptosis in human CNE-2 cells assessed as live cells at 1 uM incubated for 4 days by annexin V-FITC/PI double-staining method (reference value: 91.9%); assay type: functional; conditions: time 4 day
[7] = system: CNE-2; assay: Anticancer activity against human CNE-2 cells assessed as shortening of telomer length at 0.5 uM incubated for 8 days by TRF analysis; assay type: functional, cell-based; conditions: time 8.0 day
[8] = system: CNE-2; assay: Induction of apoptosis in human CNE-2 cells assessed as early apoptotic cells at 0.5 uM incubated for 4 days by annexin V-FITC/PI double-staining method (reference value: 8%); assay type: functional; conditions: time 4 day
[9] = system: CNE-2; assay: Induction of apoptosis in human CNE-2 cells assessed as dead cells at 0.5 uM incubated for 4 days by annexin V-FITC/PI double-staining method (reference value: 0%); assay type: functional; conditions: time 4 day
[10] = system: CNE-2; assay: Anticancer activity against human CNE-2 cells assessed as reduction in telomer length at 1 uM incubated for 8 days by TRF analysis; assay type: functional; conditions: time 8 day
[11] = system: CNE-2; assay: Induction of apoptosis in human CNE-2 cells assessed as late apoptotic cells at 0.5 uM incubated for 4 days by annexin V-FITC/PI double-staining method (reference value: 0.1%); assay type: functional; conditions: time 4 day
[12] = system: CNE-2; assay: Induction of apoptosis in human CNE-2 cells assessed as late apoptotic cells at 1 uM incubated for 4 days by annexin V-FITC/PI double-staining method (reference value: 0.1%); assay type: functional; conditions: time 4 day
[13] = system: CNE-2; assay: Induction of apoptosis in human CNE-2 cells assessed as dead cells at 1 uM incubated for 4 days by annexin V-FITC/PI double-staining method (reference value: 0%); assay type: functional; conditions: time 4 day
[14] = system: CNE-2; assay: Induction of apoptosis in human CNE-2 cells assessed as live cells at 0.5 uM incubated for 4 days by annexin V-FITC/PI double-staining method (reference value: 91.9%); assay type: functional; conditions: time 4 day
[15] = system: CNE-2; assay: Induction of apoptosis in human CNE-2 cells assessed as early apoptotic cells at 1 uM incubated for 4 days by annexin V-FITC/PI double-staining method (reference value: 8%); assay type: functional; conditions: time 4 day

Sequence of Telomerase reverse transcriptase (O14746 whole entry): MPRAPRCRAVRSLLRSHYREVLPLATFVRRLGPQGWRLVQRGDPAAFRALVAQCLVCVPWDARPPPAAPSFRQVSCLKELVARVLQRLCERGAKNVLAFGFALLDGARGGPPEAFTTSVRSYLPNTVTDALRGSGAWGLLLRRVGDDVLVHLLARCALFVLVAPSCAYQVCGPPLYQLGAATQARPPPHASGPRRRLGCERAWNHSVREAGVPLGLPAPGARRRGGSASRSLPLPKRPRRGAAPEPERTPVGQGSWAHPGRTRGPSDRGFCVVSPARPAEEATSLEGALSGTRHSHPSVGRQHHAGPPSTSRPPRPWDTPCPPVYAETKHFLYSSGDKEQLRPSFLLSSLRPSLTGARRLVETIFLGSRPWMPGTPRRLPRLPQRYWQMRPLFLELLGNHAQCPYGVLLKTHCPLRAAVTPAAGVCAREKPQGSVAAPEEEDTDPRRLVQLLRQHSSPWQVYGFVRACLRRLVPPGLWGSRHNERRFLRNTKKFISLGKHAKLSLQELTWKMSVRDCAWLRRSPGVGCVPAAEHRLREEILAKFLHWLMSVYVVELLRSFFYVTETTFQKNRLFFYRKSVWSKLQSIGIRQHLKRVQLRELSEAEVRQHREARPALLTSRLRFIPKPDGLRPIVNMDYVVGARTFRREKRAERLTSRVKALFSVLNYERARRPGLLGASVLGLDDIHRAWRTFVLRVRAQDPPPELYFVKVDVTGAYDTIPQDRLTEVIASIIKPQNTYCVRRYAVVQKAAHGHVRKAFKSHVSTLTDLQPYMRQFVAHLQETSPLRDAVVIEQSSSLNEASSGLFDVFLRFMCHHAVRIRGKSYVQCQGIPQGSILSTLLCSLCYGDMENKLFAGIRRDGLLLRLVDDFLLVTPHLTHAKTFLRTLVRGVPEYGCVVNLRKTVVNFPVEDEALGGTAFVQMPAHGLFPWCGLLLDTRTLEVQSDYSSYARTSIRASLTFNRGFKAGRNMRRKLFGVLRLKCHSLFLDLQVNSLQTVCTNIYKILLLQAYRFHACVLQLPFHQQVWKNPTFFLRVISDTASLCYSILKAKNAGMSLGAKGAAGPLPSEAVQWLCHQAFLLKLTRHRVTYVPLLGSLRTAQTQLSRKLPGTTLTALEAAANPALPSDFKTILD

SMILES	pIC50 [3]	pIC50 [4]	pIC50 [1]	pIC50 [2]	other results
COc1cccc2c1C(=O)c1c(O)c3c(c(O)c1C2=O)C[C@@](O)(C(=O)CO)C[C@@H]3O[C@H]1C[C@H](N)[C@H](O)[C@H](C)O1 [DOXORUBICIN]	5.52		5.67	5.81	
COc1ccc(S(=O)(=O)Oc2cccc(-c3nc(N)c4c(=O)oc5ccccc5c4n3)c2)cc1OC	4.53	5.20	4.69	4.75	
CS(=O)(=O)Oc1cccc(-c2nc(N)c3c(=O)oc4ccccc4c3n2)c1	< 4.00	4.23	< 4.00	< 4.00	
Nc1nc(-c2cccc(OS(=O)(=O)c3cccs3)c2)nc2c1c(=O)oc1ccccc12	5.25	5.13	5.37	4.99	
CN(C)c1ccc(S(=O)(=O)Oc2cccc(-c3nc(N)c4c(=O)oc5ccccc5c4n3)c2)cc1	5.43	6.09	5.72	5.71	Activity [5]: Active; Activity [6]: 45.2%; Activity [7]: Active; Activity [8]: 28.2%; Activity [9]: 0.1%; Activity [10]: 0.8 kilobase; Activity [11]: 6.7%; Activity [12]: 15.4%; Activity [13]: 0%; Activity [14]: 65%; Activity [15]: 39.5%
COC(=O)c1ccc(S(=O)(=O)Oc2cccc(-c3nc(N)c4c(=O)oc5ccccc5c4n3)c2)s1	4.42		< 4.00	4.32	

Further lines, with some results ahead:

pIC50 [3]	pIC50 [4]	SMILES	pIC50 [1]	pIC50 [2]	other results
5.13		Nc1nc(-c2cccc(OS(=O)(=O)c3ccc(C(F)(F)F)cc3)c2)nc2c1c(=O)oc1ccccc12	5.63	5.36	
5.17	5.50	Nc1nc(-c2cccc(OS(=O)(=O)c3ccccc3)c2)nc2c1c(=O)oc1ccccc12	5.46	5.59	
4.73		COc1ccc(S(=O)(=O)Oc2cccc(-c3nc(N)c4c(=O)oc5ccccc5c4n3)c2)cc1	4.78	5.02	
4.77	4.68	Nc1nc(-c2cccc(OS(=O)(=O)c3ccc([N+](=O)[O-])cc3)c2)nc2c1c(=O)oc1ccccc12	4.79	5.45	
4.80		Nc1nc(-c2cccc(OS(=O)(=O)c3ccc(Br)cc3)c2)nc2c1c(=O)oc1ccccc12	4.96	4.74	
4.44		Nc1nc(-c2cccc(OS(=O)(=O)c3ccc(Br)s3)c2)nc2c1c(=O)oc1ccccc12	4.73	4.74	
4.94		Nc1nc(-c2cccc(OS(=O)(=O)c3ccc(F)cc3)c2)nc2c1c(=O)oc1ccccc12	5.37	5.31	
4.68		Nc1nc(-c2cccc(OS(=O)(=O)c3ccc(Cl)s3)c2)nc2c1c(=O)oc1ccccc12	4.84	4.95	
